Reference: patent US12679878B2, “CRF2 receptor agonists and their use in therapy” (SANOFI, priority 2020, dated 2026)
Starred links: 1 amine or outer side, 2 acyl side, 3 side chain; linkers in the order of their positions; H or OH if unused. Non-standard residues stand in square brackets, D forms with d. Residues, ends and D or L forms follow the SMILES beside them. Groups on a side chain read outwards from the residue. No end group written: not given here. *: point of attachment. C20 diacid = O=C(O)CCCCCCCCCCCCCCCCCCC(=O)*; C18 diacid = O=C(O)CCCCCCCCCCCCCCCCC(=O)*; γGlu = O=C(O)[C@H](CCC(=O)[*:2])N[*:1]; Palmitoyl = CCCCCCCCCCCCCCCC(=O)*; AEEA = NCCOCCOCC(=O)O; Aib = CC(C)(N)C(=O)O

Columns and labels:
CRF1R receptor = molecular target: T1, CRF1R receptor (Homo sapiens, UniProt P34998); test: cAMP activity at anti-target CRF1R, CRF1R-overexpression CHO cell line (Example 9); format: cell-based; settings: CRF1R-overexpression CHO cell line; for EC50: 0% HSA; for Emax: read-out: Emax (%)
T1 construct: host or cells: CHO-K1 clone 2
T1 sequence (P34998 24-415): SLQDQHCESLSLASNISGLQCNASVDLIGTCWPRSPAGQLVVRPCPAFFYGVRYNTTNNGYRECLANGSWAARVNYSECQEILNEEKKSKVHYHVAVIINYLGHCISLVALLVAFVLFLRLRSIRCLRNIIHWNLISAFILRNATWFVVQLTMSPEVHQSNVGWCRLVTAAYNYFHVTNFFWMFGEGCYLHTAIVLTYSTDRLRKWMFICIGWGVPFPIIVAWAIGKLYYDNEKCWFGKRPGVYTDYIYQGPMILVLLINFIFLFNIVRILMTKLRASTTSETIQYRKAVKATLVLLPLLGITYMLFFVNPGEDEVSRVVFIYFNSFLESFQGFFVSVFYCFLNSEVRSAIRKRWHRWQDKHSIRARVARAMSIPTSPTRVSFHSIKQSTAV
Protocol: Cells were grown in a T175 culture flask placed at 37° C. to near confluence in medium (DMEM/10% FBS) and collected in 2 ml vials in cell culture medium containing 10% DMSO in a concentration of 10-50 million cells/ml. Each vial contained 1.8 ml cells. The vials were slowly frozen to −80° C. in isopropanol and then transferred in liquid nitrogen for storage. Prior to use, frozen cells were thawed quickly at 37° C. and washed (5 min at 900 rpm) with 20 ml cell buffer (1×HBSS; 20 mM HEPES; 0% or 0.1% HSA). Cells were resuspended in assay buffer (cell buffer plus 2 mM IBMX) and adjusted to a cell density of 1 million cells/ml. For measurement, 5 μl cells (final […]) and 5 μL of test compound were added to a 384-well plate, followed by incubation for 30 minutes at room temperature.
The CAMP content of cells was determined using a kit from Cisbio Corp. (cat. no. 62AM4PEC) based on HTRF (Homogenous Time Resolved Fluorescence). […] The percent activity value (E %) was calculated by setting 1000 nM of urocortin 2 (UCN2) as 100%.
A CRF1R-overexpression CHO cell line was used in this study.

human CRF2α receptor = molecular target: T2, human CRF2α receptor (Homo sapiens, UniProt Q13324); test: cAMP agonism at human CRF2 α receptor in TeloHEAC cells (Example 7); format: cell-based; settings: cAMP HTRF, TeloHEAC cells stably expressing human CRF2 α, 0% HSA; read-out: EC50 [nM], 0% HSA
T2 construct: expressed in transfected cells; host or cells: TeloHEAC
T2 sequence (Q13324 1-411): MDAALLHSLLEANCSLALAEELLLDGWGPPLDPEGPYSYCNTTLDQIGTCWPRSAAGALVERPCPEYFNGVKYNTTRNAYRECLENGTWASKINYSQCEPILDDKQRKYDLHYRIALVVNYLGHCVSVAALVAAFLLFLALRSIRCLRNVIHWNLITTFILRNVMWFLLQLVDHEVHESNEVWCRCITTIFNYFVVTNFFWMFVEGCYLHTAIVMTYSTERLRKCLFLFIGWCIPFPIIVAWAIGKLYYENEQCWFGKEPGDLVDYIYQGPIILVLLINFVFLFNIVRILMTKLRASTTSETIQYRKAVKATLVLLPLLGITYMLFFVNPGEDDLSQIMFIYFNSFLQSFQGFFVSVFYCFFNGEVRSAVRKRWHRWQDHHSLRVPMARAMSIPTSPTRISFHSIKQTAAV
In short: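 Percent activation was referenced to 1000 nM UCN2 (100%), and EC50 values taken as concentrations giving half of maximal response. The read-out was a homogeneous time-resolved fluorescence cAMP kit, fluorescence ratio 665/620 nm. Thawed cells (2000/well) saw compound for 30 min at RT in buffer with 2 mM IBMX and 0%/0.1% HSA.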

[1] = molecular target: T3, anti-target CRF1R receptor (UniProt P34998 24-415, limits assumed); test: cell-based or functional assay
T3 sequence (looked up): T1 sequence (P34998 24-415)

CCCCCCCCCCCCCCCC(=O)N[C@@H](CCC(=O)NCCCC[C@H](NC(=O)[C@H](CC(C)C)NC(=O)CNC(=O)[C@@H](NC(=O)[C@@H]1CCCN1C(=O)[C@@H](NC(=O)[C@H](CC(=O)O)NC(=O)[C@H](CC(C)C)NC(=O)[C@H](CO)NC(=O)[C@H](CC(C)C)NC(=O)[C@@H](NC(=O)[C@@H](N)[C@@H](C)CC)C(C)C)C(C)C)[C@@H](C)CC)C(=O)N[C@@H](CCC(N)=O)C(=O)N[C@@H](CCCCN)C(=O)N[C@@H](CC(C)C)C(=O)N[C@@H](CC(C)C)C(=O)N[C@@H](CCCCN)C(=O)N[C@@H](CCC(N)=O)C(=O)N[C@@H](CCC(N)=O)C(=O)N[C@@H](CCCNC(=N)N)C(=O)N[C@@H](CCC(N)=O)C(=O)N[C@@H](CCCNC(=N)N)C(=O)N[C@@H](CCCCN)C(=O)N[C@@H](CCC(=O)O)C(=O)N[C@@H](CCCNC(=N)N)C(=O)N[C@@H](CCC(N)=O)C(=O)N[C@@H](CCC(N)=O)C(=O)N[C@@H](C)C(=O)N[C@@H](CCC(=O)O)C(=O)N[C@H](C(=O)N[C@@H](CC(N)=O)C(=O)N[C@@H](C)C(=O)N[C@@H](CCCNC(=N)N)C(=O)N[C@H](C(=O)N[C@@H](CC(C)C)C(=O)N[C@@H](C)C(=O)N[C@@H](CCCNC(=N)N)C(=O)N[C@H](C(N)=O)C(C)C)[C@@H](C)CC)[C@@H](C)O)C(=O)O [compound 5] (H-IVLSLDVPIGLK([γGlu-Palmitoyl])QKLLKQQRQRKERQQAETNARILARV-NH2; N-terminus assumed)
EC50 (CRF1R receptor): > 1000 nM | Emax (CRF1R receptor): 37.4% | EC50 (human CRF2α receptor): 0.04 nM

CCCCCCCCCCCCCCCC(=O)N[C@@H](CCC(=O)NCCCC[C@H](NC(=O)[C@@H](NC(=O)[C@H](CCCCN)NC(=O)[C@@H](NC(=O)[C@@H]1CCCN1C(=O)[C@@H](NC(=O)[C@H](CC(=O)O)NC(=O)[C@H](CC(C)C)NC(=O)[C@H](CO)NC(=O)[C@H](CC(C)C)NC(=O)[C@@H](NC(=O)[C@@H](N)Cc1ccccc1)[C@@H](C)O)C(C)C)[C@@H](C)O)[C@@H](C)CC)C(=O)N[C@@H](CCC(N)=O)C(=O)N[C@@H](CCCCN)C(=O)N[C@@H](CC(C)C)C(=O)N[C@@H](CC(C)C)C(=O)N[C@@H](CCCCN)C(=O)N[C@@H](CCC(N)=O)C(=O)N[C@@H](CCC(=O)O)C(=O)N[C@@H](CCCCN)C(=O)N[C@@H](CCC(N)=O)C(=O)N[C@@H](CCCCN)C(=O)N[C@@H](CCCCN)C(=O)N[C@@H](CCC(N)=O)C(=O)N[C@@H](CCCNC(=N)N)C(=O)N[C@@H](CCC(N)=O)C(=O)N[C@@H](CCCCN)C(=O)N[C@@H](C)C(=O)N[C@@H](CCCCN)C(=O)N[C@H](C(=O)N[C@@H](C)C(=O)N[C@@H](CCCCN)C(=O)N[C@@H](CCC(N)=O)C(=O)N[C@H](C(=O)N[C@@H](CC(C)C)C(=O)N[C@@H](CCC(=O)O)C(=O)N[C@@H](CCC(N)=O)C(=O)N[C@H](C(N)=O)C(C)C)[C@@H](C)CC)[C@@H](C)O)C(=O)O [compound 9] (H-FTLSLDVPTKIK([γGlu-Palmitoyl])QKLLKQEKQKKQRQKAKTAKQILEQV-NH2)
EC50 (CRF1R receptor): > 1000 nM | Emax (CRF1R receptor): 14.9%

CCCCCCCCCCCCCCCC(=O)N[C@@H](CCC(=O)NCCCC[C@H](NC(=O)[C@@H](NC(=O)[C@H](CCCCN)NC(=O)[C@@H](NC(=O)[C@@H]1CCCN1C(=O)[C@@H](NC(=O)[C@H](CC(=O)O)NC(=O)[C@H](CC(C)C)NC(=O)[C@H](CO)NC(=O)[C@H](CC(C)C)NC(=O)[C@@H](NC(=O)[C@@H](N)Cc1ccccc1)[C@@H](C)O)C(C)C)[C@@H](C)O)[C@@H](C)CC)C(=O)N[C@@H](CCC(N)=O)C(=O)N[C@@H](CCCCN)C(=O)N[C@@H](CC(C)C)C(=O)N[C@@H](CC(C)C)C(=O)N[C@@H](CCCCN)C(=O)N[C@@H](CCC(N)=O)C(=O)N[C@@H](CCC(=O)O)C(=O)N[C@@H](CCCCN)C(=O)N[C@@H](CCC(N)=O)C(=O)N[C@@H](CCCNC(=N)N)C(=O)N[C@@H](CCCCN)C(=O)N[C@@H](CCC(N)=O)C(=O)N[C@@H](CCCCN)C(=O)N[C@@H](CCC(N)=O)C(=O)N[C@@H](CCC(N)=O)C(=O)N[C@@H](C)C(=O)N[C@@H](CCCCN)C(=O)N[C@H](C(=O)N[C@@H](CC(N)=O)C(=O)N[C@@H](C)C(=O)N[C@@H](CCCCN)C(=O)N[C@H](C(=O)N[C@@H](CC(C)C)C(=O)N[C@@H](C)C(=O)N[C@@H](CCCNC(=N)N)C(=O)N[C@H](C(N)=O)C(C)C)[C@@H](C)CC)[C@@H](C)O)C(=O)O [compound 12] (H-FTLSLDVPTKIK([γGlu-Palmitoyl])QKLLKQEKQRKQKQQAKTNAKILARV-NH2)
EC50 (CRF1R receptor): > 1000 nM | Emax (CRF1R receptor): 41.8% | EC50 (human CRF2α receptor): 0.09 nM

B1: peptide of SEQ ID NO: 172 (peptide)
peptide: IVLSLD[dV]PIKLK([AEEA-AEEA-γGlu-γGlu-C20 diacid])QILLKQERQK[Aib]QREQAEKNKQILAQV-NH2
modifications: N-terminus assumed
SMILES: CC[C@H](C)[C@H](N)C(=O)N[C@H](C(=O)N[C@@H](CC(C)C)C(=O)N[C@@H](CO)C(=O)N[C@@H](CC(C)C)C(=O)N[C@@H](CC(=O)O)C(=O)N[C@@H](C(=O)N1CCC[C@H]1C(=O)N[C@H](C(=O)N[C@@H](CCCCN)C(=O)N[C@@H](CC(C)C)C(=O)N[C@@H](CCCCNC(=O)COCCOCCNC(=O)COCCOCCNC(=O)CC[C@H](NC(=O)CC[C@H](NC(=O)CCCCCCCCCCCCCCCCCCC(=O)O)C(=O)O)C(=O)O)C(=O)N[C@@H](CCC(N)=O)C(=O)N[C@H](C(=O)N[C@@H](CC(C)C)C(=O)N[C@@H](CC(C)C)C(=O)N[C@@H](CCCCN)C(=O)N[C@@H](CCC(N)=O)C(=O)N[C@@H](CCC(=O)O)C(=O)N[C@@H](CCCNC(=N)N)C(=O)N[C@@H](CCC(N)=O)C(=O)N[C@@H](CCCCN)C(=O)NC(C)(C)C(=O)N[C@@H](CCC(N)=O)C(=O)N[C@@H](CCCNC(=N)N)C(=O)N[C@@H](CCC(=O)O)C(=O)N[C@@H](CCC(N)=O)C(=O)N[C@@H](C)C(=O)N[C@@H](CCC(=O)O)C(=O)N[C@@H](CCCCN)C(=O)N[C@@H](CC(N)=O)C(=O)N[C@@H](CCCCN)C(=O)N[C@@H](CCC(N)=O)C(=O)N[C@H](C(=O)N[C@@H](CC(C)C)C(=O)N[C@@H](C)C(=O)N[C@@H](CCC(N)=O)C(=O)N[C@H](C(N)=O)C(C)C)[C@@H](C)CC)[C@@H](C)CC)[C@@H](C)CC)C(C)C)C(C)C
EC50[nM] 0% HSA (cAMP, CRF1R-overexpression CHO cells) [1]: > 1000 nM | Emax (%) (cAMP, CRF1R-overexpression CHO cells) [1]: 25.6%

B2: peptide of SEQ ID NO: 171 (peptide)
peptide: IVLSLD[dV]PIKLK([AEEA-AEEA-γGlu-γGlu-C18 diacid])QILLKQERQK[Aib]QREQAEKNKQILAQV-NH2
modifications: N-terminus assumed
SMILES: CC[C@H](C)[C@H](N)C(=O)N[C@H](C(=O)N[C@@H](CC(C)C)C(=O)N[C@@H](CO)C(=O)N[C@@H](CC(C)C)C(=O)N[C@@H](CC(=O)O)C(=O)N[C@@H](C(=O)N1CCC[C@H]1C(=O)N[C@H](C(=O)N[C@@H](CCCCN)C(=O)N[C@@H](CC(C)C)C(=O)N[C@@H](CCCCNC(=O)COCCOCCNC(=O)COCCOCCNC(=O)CC[C@H](NC(=O)CC[C@H](NC(=O)CCCCCCCCCCCCCCCCC(=O)O)C(=O)O)C(=O)O)C(=O)N[C@@H](CCC(N)=O)C(=O)N[C@H](C(=O)N[C@@H](CC(C)C)C(=O)N[C@@H](CC(C)C)C(=O)N[C@@H](CCCCN)C(=O)N[C@@H](CCC(N)=O)C(=O)N[C@@H](CCC(=O)O)C(=O)N[C@@H](CCCNC(=N)N)C(=O)N[C@@H](CCC(N)=O)C(=O)N[C@@H](CCCCN)C(=O)NC(C)(C)C(=O)N[C@@H](CCC(N)=O)C(=O)N[C@@H](CCCNC(=N)N)C(=O)N[C@@H](CCC(=O)O)C(=O)N[C@@H](CCC(N)=O)C(=O)N[C@@H](C)C(=O)N[C@@H](CCC(=O)O)C(=O)N[C@@H](CCCCN)C(=O)N[C@@H](CC(N)=O)C(=O)N[C@@H](CCCCN)C(=O)N[C@@H](CCC(N)=O)C(=O)N[C@H](C(=O)N[C@@H](CC(C)C)C(=O)N[C@@H](C)C(=O)N[C@@H](CCC(N)=O)C(=O)N[C@H](C(N)=O)C(C)C)[C@@H](C)CC)[C@@H](C)CC)[C@@H](C)CC)C(C)C)C(C)C
EC50[nM] 0% HSA (cAMP, CRF1R-overexpression CHO cells) [1]: > 1000 nM | Emax (%) (cAMP, CRF1R-overexpression CHO cells) [1]: 7.54%
